Assay results as given in patent US7067257B2, “Thyrotropin-releasing hormone analogues and their therapeutic applications” (University of Florida, priority 2002, dated 2006).
Square brackets hold non-standard residues; d marks the D form. Peptide text beside a SMILES is read from it. pGlu = O=C1CC[C@@H](C(=O)O)N1

Key:
Swiss Webster mice [1] = assay: duration of analeptic action, antagonism of barbituate-induced anesthesia (Example 6); type: in vivo; details: 15 μmol/kg i.v.; pentobarbital injection at 60 minutes compared to after 10 minutes
Description: A pharmacological paradigm was used to assess the potency of the subject TRH analogues as central nervous system agents administered to animals in their prodrug forms in vivo. The antagonism on the barbituate-induced anesthesia was explored to survey the extent of activation of cholinergic neurons by the test compounds. Ten to sixteen Swiss Webster mice (30±2 g) were used in each group. Test compounds were dissolved in degassed DMSO. The vehicle alone (1.5 ml/kg body weight) or equimolar doses of TRH as control and prodrugs according to the present invention (15 μmol/kg body weight) were injected through the tail vein. After 10 minutes, each animal received an intraperitoneal (i.p.) injection of sodium pentobarbital at dose 60 mg/kg bodyweight. An increase in the time after which the animals were injected with TRH and a TRH analogue according to the present invention and after the cholinergic challenge was made was increased. The sleeping time was recorded as the time elapsed from the onset of the loss of righting reflex until the reflex was regained.

[2] = rat, human, in vivo; cited from earlier work
[3] = in vitro stability in mouse brain homogenate; type: in vitro ADME; details: mouse brain homogenate (20% w/v)
Description: In vitro stability studies in mouse brain homogenate (20% w/v) were conducted at 100 μM concentration of TRH analogues of Formula I wherein R^3 is an ester moiety. Analytical reversed-phase gradient HPLC with UV detection (λ=214 nm) was used to monitor the decline in the concentration in the compound added. The half-lives (t1/2) were 20 and 22 minutes for the TRH analogues derived from primary alcohols and 25 minutes and 70 minute for TRH analogues derived from […]. TRH analogues of the subject invention in which R^3 is benzyl ester was discovered to be relatively stable in the tissue (t1/2>2 hours).

Swiss Webster mice [4] = assay: antagonism of barbiturate-induced anesthesia in mice (Example 9); type: in vivo; details: 10 μmole/kg i.v.; sodium pentobarbital 60 mg/kg i.p. after 10 minutes
Description: The antagonism of the barbiturate-induced anesthesia in mice was used to assess the increase in the access of the TRH analogues of the present invention to the central nervous system compared to the parent TRH-like tripeptide (pGlu-Glu-Pro-NH2). In this assay related to the analeptic activity of the TRH-like tripeptide, 10 to 18 Swiss Webster mice (30±2 g body weight) were used in each group. The vehicle alone (1.5 ml/kg body weight) or equimolar doses of TRH-like tripeptide as control and the TRH analogues of Formula I (10 μmole/kg body weight) were injected through the tail vein (i.v.). In another group of animals, the TRH-like tripeptide was administered at 10-times higher dose (100 μmol/kg) for comparison. After 10 minutes, each animal received an intraperitoneal (i.p.) injection of sodium pentobarbital at a dose of 60 mg/kg body weight. The sleeping time was recorded from the onset of the loss of righting reflex until the reflex was regained.
Based on measuring analeptic activity in the animal model selected.

## NC(=O)[C@@H]1CCCN1C(=O)[C@H](Cc1cnc[nH]1)NC(=O)[C@@H]1CCC(=O)N1 [TRH, L-pyroglutamyl-L-histidyl-L-prolinamide]
Swiss Webster mice [1]
  loss of central nervous system (analeptic) activity: over 50%
[2]
  biological half-life: 4–6 minutes

## NC(=O)[C@@H]1CCCN1C(=O)[C@H](CCC(=O)OCc1ccccc1)NC(=O)[C@@H]1CCC(=O)N1 [benzyl ester] (HELM PEPTIDE1{[Glp].E.P.[am]}|CHEM1{[c1ccc(CO[*:1])cc1]}$PEPTIDE1,CHEM1,2:R3-1:R1$$$V2.0)
[3]
  half-life at 100 μM: > 120 min

## [pGlu]-Glu-Pro-NH2 [TRH-like tripeptide]
Swiss Webster mice [4]
  sleeping time: 65±3 minutes SEM
